# Assay results from patent publication US5280014A, “Treatment of obesity and essential hypertension and related disorders” (Amylin Pharmaceuticals, Inc., priority 1991, dated 1994).
# Columns and labels:
# [1] = system: spontaneously hypertensive (SHR) rats; conditions: continuous intravenous infusion of purified rat relaxin; single reported study; cited from earlier work
# [2] = system: isolated soleus muscle from rats; assay: amylin antagonist assay: incorporation of radiolabelled glucose into glycogen in isolated soleus muscle; assay type: cell-based, rat
# Experimental: Insulin was obtained as Humulin-R, 100 U/mL, recombinant human insulin (Eli Lilly, Indianapolis, Ind.). […] An antagonist assay was performed in vitro using the isolated soleus muscle from rats.
# The right and left soleus muscles of 4-hour fasted rats were removed immediately after decapitation of the animals, divided in half and temporarily placed in physiological saline. Muscles were assigned to different treatment groups so that the 4 muscle pieces from each animal were evenly distributed among the 9 flasks representing the different assay conditions. […] Pharmacologically active agents were added to the 10mL of medium to result in the above stated concentrations and mixtures. […]
# Dissolved glycogen was precipitated out by addition of 3 mL absolute ethanol and cooling to -20° C. overnight. […] The remaining glycogen was redissolved in water and scintillation fluid and counted for ^14 C.
# From a knowledge of the specific activity of ^14 C-glucose in the 5.5 mM glucose of the incubation medium, and the total ^14 C counts remaining in the glycogen extracted from each muscle, it was possible to determine the net rate of glycogen synthesis over the final 60 minute incubation period. This was normalized per mass of muscle and expressed as μmoles of glucosyl units incorporated into glycogen per hour per gram of muscle. […]
# [3] = system: anaesthetised rats; assay: hyperinsulinemic euglycemic glucose clamp in rats infused with insulin and CGRP; conditions: for steady-state glucose infusion rate necessary to maintain euglycemia: FIG. 2A: insulin 1.8 mU/kg/min for 210 min, CGRP 0.02 ug/kg/min added from 80-150 min; for hepatic glucose output (HGO) / suppression of hepatic glucose output (HGO): FIG. 2B clamp, insulin alone or insulin in the presence of CGRP; for suppression of hepatic glucose output (HGO): from basal 11.2±0.7 mg/kg/min; for mean steady-state glucose infusion rate: FIG. 2B: CGRP 0.02 ug/kg/min plus insulin 1.8 mU/kg/min for 75 min, then insulin alone for 130 min; for mean steady-state plasma insulin level: insulin 1.8 mU/kg/min
# Source text: In these experiments, the overall glucose disposal rate (GDR) equals the glucose rate plus hepatic glucose output (HGO).
# In addition to stimulation of peripheral glucose disposal, another important in vivo glucoregulatory effect of insulin is to inhibit HGO.
# [4] = system: BC3H-1 myocytes; assay: insulin-stimulated glucose uptake in cultured BC3H-1 myocytes; assay type: cell-based; conditions: 10^-8 M CGRP, all insulin concentrations, FIG. 4
# Experimental: (§1) In vitro studies in isolated adipocytes and cultured BC3H-1 myocytes were also conducted. […] Since 80-90% of in vivo insulin-stimulated glucose disposal represents skeletal muscle glucose uptake, an in vitro muscle cell system was also examined.
# [5] = system: isolated adipocytes; assay: 2-deoxyglucose uptake in isolated adipocytes; assay type: cell-based
# Experimental: as §1
# [6] = system: normal rats; assay: intravenous amylin bolus in normal rats (hyperglycemia, respiratory quotient); assay type: in vivo, rat
# Source text: The hyperglycemia is partly accounted for by an increase in hepatic (endogenous) glucose output and partly by an increased impediment in peripheral glucose disposal.
# [7] = system: isolated incubated skeletal muscles of the rat; assay: effect of amylin on glucose uptake and glycogen synthesis in isolated incubated skeletal muscle; assay type: cell-based
# [8] = system: isolated adipocytes; conditions: Cooper et al. 1988; cited from earlier work
# [9] = system: isolated adipocytes; assay: formation of CO2 or triacylglycerol from glucose in isolated adipocytes; assay type: cell-based
# [10] = FIG. 2B protocol, last 20 min of each period
substance,measurement,setting,value
relaxin,effect on systolic blood pressure,[1],highly effective in reducing systolic blood pressure
insulin,increase in rate of glycogen synthesis,[2]; 1000 μU/mL insulin added to media,3.7 fold
same,steady-state glucose infusion rate necessary to maintain euglycemia,[3],26.7 ± 0.1 mg/kg/min
same,hepatic glucose output (HGO),[3],3.9 ± 2.7 mg/kg/min
same,suppression of hepatic glucose output (HGO),[3],69%
same,glucose disposal rate (GDR),"[3]; FIG. 2B protocol, 3H-glucose, last 20 min of each period, basal GDR 11.2±0.7",35.6 ± 1.3 mg/kg/min
same,rise of GDR above basal,[3]; [10],24 ± 0.9 mg/kg/min
same,mean steady-state glucose infusion rate,[3],32.3 ± 0.3 mg/kg/min
same,mean steady-state plasma insulin level,[3]; absence of the CGRP infusion,695±105 uU/ml
same,mean steady-state plasma insulin level,[3]; presence of the CGRP infusion,591±86 uU/ml
calcitonin gene-related peptide [CGRP],effect on insulin-stimulated glucose uptake,[4],significantly inhibited
same,effect on basal or insulin-stimulated 2-deoxyglucose uptake,[5],no effect
same,inhibition of insulin-stimulated GDR,[3]; CGRP infusion rate 0.005 ug/kg/min,no inhibition
same,inhibition of insulin-stimulated GDR,[3]; CGRP infusion rate 0.01 ug/kg/min,intermediate effect
same,steady-state glucose infusion rate necessary to maintain euglycemia,[3],18.0 ± 0.1 mg/kg/min
same,hepatic glucose output (HGO),[3],8.0 mg/kg/min
same,suppression of hepatic glucose output (HGO),[3],29%
same,rise of GDR above basal,[3]; [10],7.4 ± 1.6 mg/kg/min
same,mean steady-state glucose infusion rate,[3],9.9 ± 0.3 mg/kg/min
amylin,persistence of hyperglycemia,[6]; 100 μg intravenous bolus,persists for several hours
same,time to hyperglycemia at diabetic levels,[6]; 100 μg intravenous bolus,15 to 30 min
same,blood glucose level reached (hyperglycemia),"[6]; 100 μg intravenous bolus, eight normal rats",around 200 mg/dL
same,change in respiratory quotient (RQ),"[6]; during somatostatin infusion (no endogenous insulin release), fasted animal",no change in RQ
same,change in respiratory quotient (RQ),"[6]; somatostatin absent, insulin allowed to increase",increase in respiratory quotient
same,reduction in the basal rate of glycogen synthesis,[7]; basal insulin concentration 1 uU/ml,30%
same,response of amylin-treated muscles to insulin,[7]; insulin concentration giving half-maximal stimulation in non amylin-treated muscles,no response to insulin
same,insulin concentration needed to overcome the effect of amylin in muscle,[7]; supra-physiological level,1000 uU/ml
same,decrease of insulin-stimulated rate of glycogen synthesis,"[2]; 20 nM amylin, 1000 μU/mL insulin",approximately 83%
same,effect on basal or insulin-stimulated incorporation of glucose into CO2 or triglyceride,[8],does not influence
same,effect on basal or insulin-stimulated rates of formation of CO2 or triacyglycerol,[9],no effect
